Read-outs that look alike come from different tables or passages of the source.
Biological target: recombinant human Nav1.7 (Homo sapiens (Human), UniProt Q15858)
Test: FRET-based membrane potential assay, recombinant human sodium channel Nav1.7
Format: cell-based
Settings: read-out: FRET-Membrane Potential Nav1.7 IC50
Method in brief: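 Channel activation used veratridine at its EC80, set by a dilution curve each experiment, together with Leiurus scorpion venom, added 3 min after compound. Membrane-potential ratio signals from FLIPR Tetra in HEPES-buffered HBSS were fitted to a four-parameter Hill equation for percent inhibition and IC50.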

[1] = HEK293 cells stably expressing recombinant human Nav1.7, veratridine + scorpion venom depolarization

Chain of recombinant human Nav1.7 (Q15858 whole entry): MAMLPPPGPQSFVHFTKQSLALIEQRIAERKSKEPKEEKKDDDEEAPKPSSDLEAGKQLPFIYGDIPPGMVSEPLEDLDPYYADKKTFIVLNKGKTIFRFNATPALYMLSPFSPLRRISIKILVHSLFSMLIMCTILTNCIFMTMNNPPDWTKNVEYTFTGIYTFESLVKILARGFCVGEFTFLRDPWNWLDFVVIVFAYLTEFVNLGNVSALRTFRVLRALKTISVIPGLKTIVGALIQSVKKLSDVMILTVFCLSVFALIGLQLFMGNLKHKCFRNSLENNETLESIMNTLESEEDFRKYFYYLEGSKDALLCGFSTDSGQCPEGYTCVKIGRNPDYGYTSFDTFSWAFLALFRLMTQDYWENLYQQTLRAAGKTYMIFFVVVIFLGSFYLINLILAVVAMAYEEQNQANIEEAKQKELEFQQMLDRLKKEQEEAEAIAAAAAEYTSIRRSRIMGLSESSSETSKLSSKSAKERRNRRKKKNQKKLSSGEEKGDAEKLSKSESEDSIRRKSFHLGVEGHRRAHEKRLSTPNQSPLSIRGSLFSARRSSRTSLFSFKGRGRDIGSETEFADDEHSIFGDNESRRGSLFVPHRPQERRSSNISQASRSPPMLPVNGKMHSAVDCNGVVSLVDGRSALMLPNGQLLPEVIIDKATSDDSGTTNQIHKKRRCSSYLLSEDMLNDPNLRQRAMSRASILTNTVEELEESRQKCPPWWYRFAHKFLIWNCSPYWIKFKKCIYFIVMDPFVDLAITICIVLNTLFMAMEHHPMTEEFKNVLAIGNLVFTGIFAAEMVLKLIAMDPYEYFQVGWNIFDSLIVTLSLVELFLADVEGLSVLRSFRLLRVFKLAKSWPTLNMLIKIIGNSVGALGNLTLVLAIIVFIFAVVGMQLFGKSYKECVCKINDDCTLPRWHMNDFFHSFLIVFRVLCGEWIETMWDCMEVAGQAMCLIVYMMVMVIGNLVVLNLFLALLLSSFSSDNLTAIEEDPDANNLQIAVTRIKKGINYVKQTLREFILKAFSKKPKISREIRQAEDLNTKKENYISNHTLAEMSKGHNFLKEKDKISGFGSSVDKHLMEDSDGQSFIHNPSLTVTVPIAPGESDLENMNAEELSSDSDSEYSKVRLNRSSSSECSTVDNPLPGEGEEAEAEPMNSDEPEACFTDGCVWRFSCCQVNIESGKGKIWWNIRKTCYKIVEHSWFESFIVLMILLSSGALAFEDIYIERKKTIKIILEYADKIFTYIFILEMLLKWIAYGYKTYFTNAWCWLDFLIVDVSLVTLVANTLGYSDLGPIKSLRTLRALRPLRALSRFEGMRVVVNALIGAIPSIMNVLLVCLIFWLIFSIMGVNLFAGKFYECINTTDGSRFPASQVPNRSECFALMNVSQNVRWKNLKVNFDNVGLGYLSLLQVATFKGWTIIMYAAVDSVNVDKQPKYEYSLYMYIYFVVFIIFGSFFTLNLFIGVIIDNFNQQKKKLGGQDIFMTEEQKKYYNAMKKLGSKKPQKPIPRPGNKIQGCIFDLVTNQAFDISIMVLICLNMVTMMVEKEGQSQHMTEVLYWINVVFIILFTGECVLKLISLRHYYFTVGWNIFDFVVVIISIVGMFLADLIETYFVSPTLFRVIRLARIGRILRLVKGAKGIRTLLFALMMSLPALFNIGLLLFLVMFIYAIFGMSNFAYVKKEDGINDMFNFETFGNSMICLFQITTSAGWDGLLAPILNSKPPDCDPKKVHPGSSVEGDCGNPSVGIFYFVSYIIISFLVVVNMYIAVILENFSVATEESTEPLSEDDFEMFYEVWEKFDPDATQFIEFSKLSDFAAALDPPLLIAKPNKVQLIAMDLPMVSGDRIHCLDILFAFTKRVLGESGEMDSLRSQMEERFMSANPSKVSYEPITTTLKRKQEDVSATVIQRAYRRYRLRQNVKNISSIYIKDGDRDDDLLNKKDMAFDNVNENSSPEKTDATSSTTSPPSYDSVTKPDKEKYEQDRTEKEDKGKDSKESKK

Row | SMILES | IC50 [1] [nM] | IC50 [nM]
1 | COCCOC1CN(C(=O)c2ccc3cc(Oc4ccc(C(F)(F)F)cn4)ccc3n2)C1 [Example 427, [3-(2-methoxyethoxy)azetidin-1-yl](6-{[5-(trifluoromethyl)pyridin-2-yl]oxy}quinolin-2-yl)methanone] | > 20000 | 
2 | O=C(c1ccc2cc(Oc3ccc(C(F)(F)F)cn3)ccc2n1)N1CCC(F)(COc2ccncc2)C1 (stereo not drawn) [Example 489, {3-fluoro-3-[(pyridin-4-yloxy)methyl]pyrrolidin-1-yl}(6-{[5-(trifluoromethyl)pyridin-2-yl]oxy}quinolin-2-yl)methanone] | 1100 | 
3 | CC1(Oc2ccccc2)CN(C(=O)c2ccc3cc(Oc4ccc(C(F)(F)F)cn4)ccc3n2)C1 [Example 200, (3-methyl-3-phenoxyazetidin-1-yl)(6-{[5-(trifluoromethyl)pyridin-2-yl]oxy}quinolin-2-yl)methanone] | > 20000 | 
4 | CN(C)C(=O)[C@@H]1C[C@@H](F)CN1C(=O)c1ccc2cc(Oc3ccc(C(F)(F)F)cn3)ccc2n1 [Example 509, (4R)-4-fluoro-N,N-dimethyl-1-[(6-{[5-(trifluoromethyl)pyridin-2-yl]oxy}quinolin-2-yl)carbonyl]-L-prolinamide] | 2640 | 
5 | C[C@H]1N(C(=O)c2ccc3cc(Oc4ccc(C(F)(F)F)cn4)ccc3n2)CC1(C)C [Example 197, (6-{[5-(trifluoromethyl)pyridin-2-yl]oxy}quinolin-2-yl)[(2R)-2,3,3-trimethylazetidin-1-yl]methanone] | 2720 | 
6 | CN1CC(NC(=O)c2ccc3cc(Oc4ccc(C(F)F)cn4)ccc3n2)CC1=O (stereo not drawn) [Example 462, 6-{[5-(difluoromethyl)pyridin-2-yl]oxy}-N-(1-methyl-5-oxopyrrolidin-3-yl)quinoline-2-carboxamide] |  | 947
7 | COC1(CNC(=O)c2ccc3cc(Oc4ccc(C(F)(F)F)cn4)ccc3n2)CCC1 [Example 591, N-[(1-methoxycyclobutyl)methyl]-6-{[5-(trifluoromethyl)pyridin-2-yl]oxy}quinoline-2-carboxamide] | 737 | 
8 | O=C(c1ccc2cc(Oc3ccc(C(F)(F)F)cn3)ccc2n1)N1CCN(S(=O)(=O)C2CCS(=O)(=O)C2)CC1 (stereo not drawn) [Example 386, {4[(1,1-dioxidotetrahydrothiophen-3-yl)sulfonyl]piperazin-1-yl}(6-{[5-(trifluoromethyl)pyridin-2-yl]oxy}quinolin-2-yl)methanone] | > 20000 | 
9 | CO[C@@H]1CCN(C(=O)c2ccc3cc(Oc4ccc(C(F)(F)F)cn4)ccc3n2)C1 [Example 588, [(3R)-3-methoxypyrrolidin-1-yl](6-{[5-(trifluoromethyl)pyridin-2-yl]oxy}quinolin-2-yl)methanone] |  | 3640
10 | O=C(c1ccc2cc(Oc3ncc(F)cn3)ccc2n1)N1CCNCC1 [Example 244, {6[(5-fluoropyrimidin-2-yl)oxy]quinolin-2-yl}(piperazin-1-yl)methanone] | > 20000 | 
11 | N#Cc1ccc(Oc2ccc3nc(C(=O)N[C@H]4CCCC[C@@H]4O)ccc3c2)cc1 [Example 120, 6-(4-cyanophenoxy)-N-[(1S,2S)-2-hydroxycyclohexyl]quinoline-2-carboxamide] |  | 2040
12 | O=C(NC[C@H]1CCCO1)c1ccc2cc(Oc3ccc(C(F)(F)F)cn3)ccc2n1 [Example 409, N-[(2R)-tetrahydrofuran-2-ylmethyl]-6-{[5-(trifluoromethyl)pyridin-2-yl]oxy}quinoline-2-carboxamide] | 403 | 
13 | O=C(NCC(=O)N1CCCC1)c1ccc2cc(Oc3ccc(C(F)F)cn3)ccc2n1 [Example 456, 6-{[5-(difluoromethyl)pyridin-2-yl]oxy}-N-[2-oxo-2-(pyrrolidin-1-yl)ethyl]quinoline-2-carboxamide] | 886 | 
14 | N#Cc1ccc(Oc2ccc3nc(C(=O)NCCCN4CCCCC4)ccc3c2)cc1 [Example 100, 6-(4-cyanophenoxy)-N-[3-(piperidin-1-yl)propyl]quinoline-2-carboxamide] | 221 | 
15 | O=C(NC[C@H]1CCCN1)c1ccc2cc(Oc3ccc(C(F)(F)F)cn3)ccc2n1 [Example 335, N-[(2R)-pyrrolidin-2-ylmethyl]-6-{[5-(trifluoromethyl)pyridin-2-yl]oxy}quinoline-2-carboxamide] | 573 | 
16 | CC(C)COC(=O)N1CCN(C(=O)c2ccc3cc(Oc4ccc(C(F)(F)F)cn4)ccc3n2)CC1 [Example 293, isobutyl 4-[(6-{[5-(trifluoromethyl)pyridin-2-yl]oxy}quinolin-2-yl)carbonyl]piperazine-1-carboxylate] | 3320 | 
17 | N#Cc1ccc(Oc2ccc3nc(C(=O)NCc4cccc(OC(F)(F)F)c4)ccc3c2)cc1 [Example 102, 6-(4-cyanophenoxy)-N-[3-(trifluoromethoxy)benzyl]quinoline-2-carboxamide] | > 20000 | 
18 | O=C(c1ccc2cc(Oc3ccc(C(F)(F)F)cn3)ccc2n1)N1CCC(N2CCOCC2)C1 (stereo not drawn) [Example 316, [3-(morpholin-4-yl)pyrrolidin-1-yl](6-{[5-(trifluoromethyl)pyridin-2-yl]oxy}quinolin-2-yl)methanone] |  | 12000

Row | SMILES | IC50 [1] [nM] | IC50 [nM]
19 | O=C(NCCN1CCCC1)c1ccc2cc(Oc3ccc(C(F)(F)F)cn3)ccc2n1 [Example 174, N-[2-(pyrrolidin-1-yl)ethyl]-6-{[5-(trifluoromethyl)pyridin-2-yl]oxy}quinoline-2-carboxamide] | 294 | 
20 | N#Cc1ccc(Oc2ccc3nc(C(=O)N4CCOCC4)ccc3c2)cc1 [Example 83, 4-{[2-(morpholin-4-ylcarbonyl)quinolin-6-yl]oxy}benzonitrile] | > 20000 | 
21 | O=C(c1ccc2cc(Oc3ccc(C(F)(F)F)cn3)ccc2n1)N1CCNC[C@H]1CO [Example 234, [(2S)-2-(hydroxymethyl)piperazin-1-yl](6-{[5-(trifluoromethyl)pyridin-2-yl]oxy}quinolin-2-yl)methanone] | 2870 | 
22 | N#CC1CN(C(=O)c2ccc3cc(Oc4ccc(C(F)(F)F)cn4)ccc3n2)C1 [Example 367, 1-[(6-{[5-(trifluoromethyl)pyridin-2-yl]oxy}quinolin-2-yl)carbonyl]azetidine-3-carbonitrile] | 2530 | 
23 | N#Cc1ccc(Oc2ccc3nc(C(=O)Nc4ccc(Oc5ccccc5)cc4)ccc3c2)cc1 [Example 101, 6-(4-cyanophenoxy)-N-(4-phenoxyphenyl)quinoline-2-carboxamide] |  | > 20000
24 | CC(C)S(=O)(=O)N1CCN(C(=O)c2ccc3cc(Oc4ccc(C(F)(F)F)cn4)ccc3n2)CC1 [Example 177, [4-(isopropylsulfonyl)piperazin-1-yl](6-{[5-(trifluoromethyl)pyridin-2-yl]oxy}quinolin-2-yl)methanone] | 2680 | 
25 | O=C(c1ccc2cc(Oc3ccc(C(F)(F)F)nc3)ccc2n1)N1CCC(N2CCOCC2)CC1 [Example 526, [4-(morpholin-4-yl)piperidin-1-yl](6-{[6-(trifluoromethyl)pyridin-3-yl]oxy}quinolin-2-yl)methanone] | 3090 | 
26 | CN(CC(=O)NC1CC1)C(=O)c1ccc2cc(Oc3ccc(C(F)F)cn3)ccc2n1 [Example 466, N-[2-(cyclopropylamino)-2-oxoethyl]-6-{[5-(difluoromethyl)pyridin-2-yl]oxy}-N-methylquinoline-2-carboxamide] | 9410 | 
27 | N#Cc1ccc(Oc2ccc3nc(C(=O)NCCN4CCCC4)ccc3c2)cc1 [Example 96, 6-(4-cyanophenoxy)-N-[2-(pyrrolidin-1-yl)ethyl]quinoline-2-carboxamide] | 329 | 
28 | O=C(NC1CS(=O)(=O)CC1O)c1ccc2cc(Oc3ccc(C(F)(F)F)cn3)ccc2n1 (stereo not drawn) [Example 285, N-(4-hydroxy-1,1-dioxidotetrahydrothiophen-3-yl)-6-{[5-(trifluoromethyl)pyridin-2-yl]oxy}quinoline-2-carboxamide] |  | 774
29 | O=C(c1ccc2cc(Oc3ccc(C(F)(F)F)cn3)ccc2n1)N1CCC2(C1)OCCO2 [Example 352, 1,4-dioxa-7-azaspiro[4.4]non-7-yl(6-{[5-(trifluoromethyl)pyridin-2-yl]oxy}quinolin-2-yl)methanone] |  | 3280
30 | O=C(c1ccc2cc(Oc3ccc(C(F)(F)F)cn3)ccc2n1)N1CCN(c2ccccc2)CC1 [Example 262, (4-phenylpiperazin-1-yl)(6-{[5-(trifluoromethyl)pyridin-2-yl]oxy}quinolin-2-yl)methanone] | 2090 | 
31 | O=C(NC1CS(=O)(=O)C1)c1ccc2cc(Oc3ccc(C(F)(F)F)cn3)ccc2n1 [Example 504, N-(1,1-dioxidothietan-3-yl)-6-{[5-(trifluoromethyl)pyridin-2-yl]oxy}quinoline-2-carboxamide] | 593 | 
32 | O=C(NCCn1ccnc1)c1ccc2cc(Oc3ccc(C(F)(F)F)cn3)ccc2n1 [Example 423, N-[2-(1H-imidazol-1-yl)ethyl]-6-{[5-(trifluoromethyl)pyridin-2-yl]oxy}quinoline-2-carboxamide] | 830 | 
33 | O=C1NCCN2CCN(C(=O)c3ccc4cc(Oc5ccc(C(F)(F)F)cn5)ccc4n3)CC12 (stereo not drawn) [Example 169, 8-[(6-{[5-(trifluoromethyl)pyridin-2-yl]oxy}quinolin-2-yl)carbonyl]hexahydro-2H-pyrazino[1,2-a]pyrazin-1(6H)-one] | 17200 | 
34 | N#Cc1ccc(Oc2ccc3nc(C(=O)NC4CCOC4)ccc3c2)cc1 (stereo not drawn) [Example 114, 6-(4-cyanophenoxy)-N-(tetrahydrofuran-3-yl)quinoline-2-carboxamide] |  | 560
35 | NS(=O)(=O)CCNC(=O)c1ccc2cc(Oc3ccc(C(F)(F)F)cn3)ccc2n1 [Example 317, N-(2-sulfamoylethyl)-6-{[5-(trifluoromethyl)pyridin-2-yl]oxy}quinoline-2-carboxamide] | 3010 | 
36 | O=C(c1ccc2cc(Oc3ccc(C(F)(F)F)cn3)ccc2n1)N1CCCC1c1ccc(C(F)(F)F)cc1 (stereo not drawn) [Example 224, {2-[4-(trifluoromethyl)phenyl]pyrrolidin-1-yl}(6-{[5-(trifluoromethyl)pyridin-2-yl]oxy}quinolin-2-yl)methanone] |  | > 20000

From patent US9452986B2, “6-heteroaryloxy- or 6-aryloxy-quinoline-2-carboxamides and method of use” (AbbVie Inc., priority 2014, dated 2016)
